Reference: patent publication US20110160146A1, “Conjungation of Small Molecules to Octaarginine Transporters for Overcoming Multi-Drug Resistance” (National Institute of Health (NIH), priority 2008, published 2011)
Non-standard residues stand in square brackets, D forms with d. Residues, ends and D or L forms follow the SMILES beside them. *: point of attachment. Paclitaxel(2'-OCO(CH2)3S) = CC(=O)O[C@H]1C(=O)[C@@]2(C)[C@H]([C@H](OC(=O)c3ccccc3)[C@]3(O)C[C@H](OC(=O)[C@H](OC(=O)CCCS*)[C@@H](NC(=O)c4ccccc4)c4ccccc4)C(C)=C1C3(C)C)[C@]1(OC(C)=O)CO[C@@H]1C[C@@H]2O; X2 = CC(=O)O[C@H]1C(=O)[C@@]2(C)[C@H]([C@H](OC(=O)c3ccccc3)[C@]3(O)C[C@H](OC(=O)[C@H](OC(=O)OCCS*)[C@@H](NC(=O)c4ccccc4)c4ccccc4)C(C)=C1C3(C)C)[C@]1(OC(C)=O)CO[C@@H]1C[C@@H]2O; X1 = CC(=O)O[C@H]1C(=O)[C@]2(C)[C@@H](OC(=O)CCCS*)C[C@H]3OC[C@@]3(OC(C)=O)[C@H]2[C@H](OC(=O)c2ccccc2)[C@]2(O)C[C@H](OC(=O)[C@H](O)[C@@H](NC(=O)c3ccccc3)c3ccccc3)C(C)=C1C2(C)C; X3 = O=C(OCCCS*)Oc1ccc(-c2cn3c(=O)c(Cc4ccccc4)nc-3c(Cc3ccccc3)[nH]2)cc1

What was measured:
[1] = test system: MCF-7-pgp; test: Cell cytotoxicity assay (IC50), MCF-7-pgp; details: read-out: IC50 concentration; MCF-7-pgp (Pgp transfected); 20 min incubation, washed, 72 hr drug-free media
Experimental: (§1) After 72 hours, the cytotoxicity of the relevant compound was determined by an MTT based assay.
(§2) Within the panel of human cancer cells, there were three sets of related sensitive and resistant cell lines, the latter based wholly or in part on Pgp-mediated efflux. These resistant lines were either created through stable transfection of MCF-7 cells with Pgp (MCF-7-Pgp), or by selection through exposure of OVCA429 and OVCA433 cells to taxol (OVCA429T and OVCA433T)^19 or taxotere (OVCA429TxT and OVCA433TxT), creating a complex MDR phenotype including Pgp upregulation.
(§3) Cell Lines; SKOV-3 cells were obtained from ATCC; UCI-101 and UCI-107 cell lines were obtained from Drs. P. DiSaia and A. Manetta, University of California; MCF-7 and MCF-7-Pgp were obtained from Dr. D. Piwnica-Worms, Washington University; OVCA429, OVCA433 and the taxane resistant derivatives of these cells (OVCA429T, OVCA429TxT, OVCA433T and OVCA433TxT) were obtained from Dr. B. Sikic, Stanford University. All cells were grown in DMEM with 10% FBS.
(§4) Cell Cytotoxicity Assay. The cytotoxicity of relevant compounds was determined by IC50 assay. Cells were seeded overnight into 96-well plates, and then incubated with a serial dilution of the indicated compound for 20 min, before washing twice with fresh media, and incubation at 37° C. for 72 hr in drug-free media. The IC50 values were determined as the concentration of compound required to inhibit the viability of the cell layer by 50% relative to untreated, and cell-free control wells (100 and 0% viability respectively) determined from semi-logarithmic dose response curves. […] Bioluminescence was determined using an IVIS 50 system (Caliper Life Sciences, Alameda, Calif.). Each compound and dilution was tested in triplicate per experiment, with each experiment reproduced three times.

[2] = Hydrolytic stability (HBS, pH 7.4, 37° C.); type: physicochemical
Experimental: A conjugate in which a drug to be delivered and a transporter are linked by a specifically cleavable or specifically releasable linker will have a half-life. The term “half-life” in this context refers to the amount of time required for one half of the amount of conjugate to become dissociated to release the free drug. The “accelerated” (37° C.) hydrolytic half-lives of the conjugates ranged from 19 to 97 hours, extending well beyond the incubation times (≦20 minutes) used for cell assays. Stabilities of the conjugates as solids at room temperature extend for months. […] The half-life of a conjugate can be “tuned” or modified, according to the invention, as described below.
The “accelerated” (37° C.) hydrolytic half-lives of the tetra- and octaarginine conjugates ranged from 19 to 97 hours, extending well beyond the incubation times (s 20 minutes) used for cell assays. Stability as a solid at room temperature extends for months. […] The activities of various conjugate-linker combinations were evaluated using a panel of human cancer cells, leading to the identification of ester-linked conjugates 2a and 3a as preferred candidates (Table 2).

[3] = test system: OVCA 433; test: cells; details: read-out: IC50 concentration; OVCA 433; 20 min incubation, washed, 72 hr drug-free media
Experimental: as §1, §3, §4

[4] = test system: UCI-107 luc; test: cells; details: read-out: IC50 concentration; UCI-107 luc; 20 min incubation, washed, 72 hr drug-free media; MTT assay or luciferase activity
Experimental: as §1, §3, §4

[5] = test system: MCF-7; test: cells; details: read-out: IC50 concentration; MCF-7; 20 min incubation, washed, 72 hr drug-free media
Experimental: as §1, §3, §4

[6] = test system: OVCA 429; test: cells; details: read-out: IC50 concentration; OVCA 429; 20 min incubation, washed, 72 hr drug-free media
Experimental: as §1, §3, §4

[7] = test system: UCI-101 luc; test: cells; details: read-out: IC50 concentration; UCI-101 luc; 20 min incubation, washed, 72 hr drug-free media; MTT assay or luciferase activity
Experimental: as §1, §3, §4

[8] = test system: SKOV-3; test: cells; details: read-out: IC50 concentration; SKOV-3; 20 min incubation, washed, 72 hr drug-free media
Experimental: as §1, §3, §4

[9] = test system: OVCA 429T; test: cells; details: read-out: IC50 concentration; OVCA 429T (taxol resistant); 20 min incubation, washed, 72 hr drug-free media
Experimental: as §1, §2, §3, §4

[10] = test system: OVCA 433T; test: cells; details: read-out: IC50 concentration; OVCA 433T (taxol resistant); 20 min incubation, washed, 72 hr drug-free media
Experimental: as §1, §2, §3, §4

[11] = test system: OVCA 433TxT; test: cells; details: read-out: IC50 concentration; OVCA 433TxT (taxotere selected); 20 min incubation, washed, 72 hr drug-free media
Experimental: as §1, §2, §3, §4

[12] = test system: OVCA 429TxT; test: cells; details: read-out: IC50 concentration; OVCA 429TxT (taxotere selected); 20 min incubation, washed, 72 hr drug-free media
Experimental: as §1, §2, §3, §4

[13] = test system: OVCA429 cells; test: Cell cycle assay, OVCA429; type: cell-based, human; design: dose or concentration left out as unconfirmed; details: analysis after 24 hr, 7-AAD flow cytometry
Experimental: FIG. 1. Mechanisms of action of octaarginine taxol conjugates. (a) Tubulin polymerization assay.
The percentage of cells in G2/M was recorded. Data from 3 separate experiments were combined.
Statistical significance was determined as p<0.05.

[14] = Experimental: FIG. 2. Effect of octaarginine (r8) conjugation on biodistribution of drug. […] (a) Representative image of treated mice at 40 min post injection. (b) Total signal per mouse at times post injection (average of two experiments).
Biolumninescence signal was determined at regular time points immediately after injection using an IVIS 200 system (Caliper Life Sciences, Alameda, Calif.).

`CC(=O)N[C@H](CSSCCCC(=O)O[C@@H](C(=O)O[C@H]1C[C@@]2(O)[C@@H](OC(=O)c3ccccc3)[C@@H]3[C@]4(OC(C)=O)CO[C@@H]4C[C@H](O)[C@@]3(C)C(=O)[C@H](OC(C)=O)C(=C1C)C2(C)C)[C@@H](NC(=O)c1ccccc1)c1ccccc1)C(=O)N[C@H](CCCNC(=N)N)C(=O)N[C@H](CCCNC(=N)N)C(=O)N[C@H](CCCNC(=N)N)C(=O)N[C@H](CCCNC(=N)N)C(=O)N[C@H](CCCNC(=N)N)C(=O)N[C@H](CCCNC(=N)N)C(=O)N[C@H](CCCNC(=N)N)C(=O)N[C@H](CCCNC(=N)N)C(N)=O` [2a, Taxol C2′ ester octaarginine conjugate] (Ac-[dC](Paclitaxel(2'-OCO(CH2)3S))[dR][dR][dR][dR][dR][dR][dR][dR]-NH2) showed an IC50 [1] of 151 nM, a half-life [2] of 23 h and an IC50 [3] of 21 nM. For the same compound, the IC50 [4] was 92 nM, the IC50 [5] was 40 nM and the IC50 [6] was 42 nM. For the same compound, the IC50 [7] was 58 nM, the IC50 [8] was 11 nM and the IC50 [9] was 420 nM. For the same compound, the IC50 [10] was 131 nM, the IC50 [11] was 2980 nM and the IC50 [12] was 101 nM.

In the case of `CC(=O)N[C@H](CSSCCCC(=O)O[C@@H](C(=O)O[C@H]1C[C@@]2(O)[C@@H](OC(=O)c3ccccc3)[C@@H]3[C@]4(OC(C)=O)CO[C@@H]4C[C@H](O)[C@@]3(C)C(=O)[C@H](OC(C)=O)C(=C1C)C2(C)C)[C@@H](NC(=O)c1ccccc1)c1ccccc1)C(=O)N[C@H](CCCNC(=N)N)C(=O)N[C@H](CCCNC(=N)N)C(=O)N[C@H](CCCNC(=N)N)C(=O)N[C@H](CCCNC(=N)N)C(N)=O` [2b, Taxol C2′ ester tetraarginine conjugate], the “percentage of cells in the G2/M phase relative to taxol” value [13] is reported as “significantly greater percentage” and the half-life [2] is reported as 19 h.

`CC(=O)N[C@H](CSSCCCC(=O)O[C@H]1C[C@H]2OC[C@@]2(OC(C)=O)[C@H]2[C@H](OC(=O)c3ccccc3)[C@]3(O)C[C@H](OC(=O)[C@H](O)[C@@H](NC(=O)c4ccccc4)c4ccccc4)C(C)=C([C@@H](OC(C)=O)C(=O)[C@]12C)C3(C)C)C(=O)N[C@H](CCCNC(=N)N)C(=O)N[C@H](CCCNC(=N)N)C(=O)N[C@H](CCCNC(=N)N)C(=O)N[C@H](CCCNC(=N)N)C(=O)N[C@H](CCCNC(=N)N)C(=O)N[C@H](CCCNC(=N)N)C(=O)N[C@H](CCCNC(=N)N)C(=O)N[C@H](CCCNC(=N)N)C(N)=O` [3a, Taxol C7 ester octaarginine conjugate] (Ac-[dC](X1)[dR][dR][dR][dR][dR][dR][dR][dR]-NH2) gave an IC50 [1] of 83 nM, a half-life [2] of 97 h and an IC50 [3] of 62 nM. The IC50 [4] was 233 nM, the IC50 [5] was 146 nM and the IC50 [6] was 125 nM. For the same compound, the IC50 [7] was 170 nM, the IC50 [8] was 24 nM and the IC50 [9] was 225 nM. For the same compound, the IC50 [10] was 95 nM, the IC50 [11] was 1280 nM and the IC50 [12] was 93 nM.

With `CC(=O)N[C@H](CSSCCCC(=O)O[C@H]1C[C@H]2OC[C@@]2(OC(C)=O)[C@H]2[C@H](OC(=O)c3ccccc3)[C@]3(O)C[C@H](OC(=O)[C@H](O)[C@@H](NC(=O)c4ccccc4)c4ccccc4)C(C)=C([C@@H](OC(C)=O)C(=O)[C@]12C)C3(C)C)C(=O)N[C@H](CCCNC(=N)N)C(=O)N[C@H](CCCNC(=N)N)C(=O)N[C@H](CCCNC(=N)N)C(=O)N[C@H](CCCNC(=N)N)C(N)=O` [3b, Taxol C7 ester tetraarginine conjugate] the half-life [2] was 68 h.

Work on `CC(=O)N[C@H](CSSCCOC(=O)O[C@@H](C(=O)O[C@H]1C[C@@]2(O)[C@@H](OC(=O)c3ccccc3)[C@@H]3[C@]4(OC(C)=O)CO[C@@H]4C[C@H](O)[C@@]3(C)C(=O)[C@H](OC(C)=O)C(=C1C)C2(C)C)[C@@H](NC(=O)c1ccccc1)c1ccccc1)C(=O)N[C@H](CCCNC(=N)N)C(=O)N[C@H](CCCNC(=N)N)C(=O)N[C@H](CCCNC(=N)N)C(=O)N[C@H](CCCNC(=N)N)C(=O)N[C@H](CCCNC(=N)N)C(=O)N[C@H](CCCNC(=N)N)C(=O)N[C@H](CCCNC(=N)N)C(=O)N[C@H](CCCNC(=N)N)C(N)=O` [4a, Taxol C2′ octaarginine conjugate] (Ac-[dC](X2)[dR][dR][dR][dR][dR][dR][dR][dR]-NH2) yielded a half-life [2] of 32 h.

With `CC(=O)N[C@H](CSSCCOC(=O)O[C@@H](C(=O)O[C@H]1C[C@@]2(O)[C@@H](OC(=O)c3ccccc3)[C@@H]3[C@]4(OC(C)=O)CO[C@@H]4C[C@H](O)[C@@]3(C)C(=O)[C@H](OC(C)=O)C(=C1C)C2(C)C)[C@@H](NC(=O)c1ccccc1)c1ccccc1)C(=O)N[C@H](CCCNC(=N)N)C(=O)N[C@H](CCCNC(=N)N)C(=O)N[C@H](CCCNC(=N)N)C(=O)N[C@H](CCCNC(=N)N)C(N)=O` [4b, Taxol C2′ tetraarginine conjugate] the half-life [2] was 26 h.

With `CC(=O)N[C@H](CSSCCCOC(=O)Oc1ccc(-c2cn3c(=O)c(Cc4ccccc4)nc-3c(Cc3ccccc3)[nH]2)cc1)C(=O)N[C@H](CCCNC(=N)N)C(=O)N[C@H](CCCNC(=N)N)C(=O)N[C@H](CCCNC(=N)N)C(=O)N[C@H](CCCNC(=N)N)C(=O)N[C@H](CCCNC(=N)N)C(=O)N[C@H](CCCNC(=N)N)C(=O)N[C@H](CCCNC(=N)N)C(=O)N[C@H](CCCNC(=N)N)C(N)=O` [compound 6, Coelenterazine octaarginine conjugate] (Ac-[dC](X3)[dR][dR][dR][dR][dR][dR][dR][dR]-NH2) the half-life [2] was 0.117 h.

With `CC(=O)N[C@H](CSSCCCCOC(=O)Oc1ccc2nc(C3=N[C@@H](C(=O)O)CS3)sc2c1)C(=O)N[C@H](CCCNC(=N)N)C(=O)N[C@H](CCCNC(=N)N)C(=O)N[C@H](CCCNC(=N)N)C(=O)N[C@H](CCCNC(=N)N)C(=O)N[C@H](CCCNC(=N)N)C(=O)N[C@H](CCCNC(=N)N)C(=O)N[C@H](CCCNC(=N)N)C(=O)N[C@H](CCCNC(=N)N)C(N)=O` [compound 7, Luciferin octaarginine conjugate] the half-life [2] was 30 h, the “calculated area under the curve (total light production)” value ([14]; intraperitoneal injection, luciferase transgenic mice) was “similar” and the “biodistribution after intraperitoneal injection” value ([14]; transgenic mice ubiquitously expressing Firefly luciferase, equimolar to 5 mg/kg) was “did not distribute throughout the body, remaining instead near the site of administration”.
